Test [1] concerns the target T1, FLuc-C-HiBiT (Photinus pyralis, UniProt P08659).
T1 construct: firefly luciferase with C-terminal HiBiT tag, E. coli expressed
Kind of test: biochemical. To be noted: enzyme activity, 10 uM ATP; read-out: IC50 or SDR50 (mM) / FLuc E.

Test [2] concerns the target P. pyralis FLuc (Photinus pyralis, UniProt P08659). Kind of test: FLuc enzymatic luminescence assay, P. pyralis FLuc. In kind it is biochemical. To be noted: FLuc enzymatic assay. The method in brief:
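Runs with and without 10 µM ATP: compounds were pre-incubated with FLuc (1–10 nM, PBS pH 7.4) at ambient temperature, light-protected, for 30–60 min. Luminescence was imaged 5 min after adding 10 µM D-luciferin (final). Inhibition was scaled between DMSO neutral and no-enzyme controls.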

Test [3] relates to E. coli Lig-C-HiBiT (DNA ligase). Kind of test: SDR assay (aqueous ligand dispense), E. coli Lig-C-HiBiT. The conditions noted are these: for SDR assay data: 1 nM E. coli Lig-C-HiBiT; for SDR assay data / SDR response: Log [ATP]; for SDR response: replicates. On the technique in general: HiBiT is a short tag that completes a luciferase, so light tracks the accessible tagged protein.

Test [4] deals with B. malayi iPGM-C-HiBiT (Brugia malayi, UniProt Q4VWF8). The conditions noted are these: B. malayi iPGM-C-HiBiT SDR 0.5 nM; ligand […] SDR.
[5] abbreviates: E. coli Lig-C-HiBiT (1.0 nM), ligand 100 µM.

Several values for one entry are separate records, joined by “and”; a condition that tells them apart may be missing. Identical values can stand only once.

Chain of B. malayi iPGM-C-HiBiT (Q4VWF8 2-515): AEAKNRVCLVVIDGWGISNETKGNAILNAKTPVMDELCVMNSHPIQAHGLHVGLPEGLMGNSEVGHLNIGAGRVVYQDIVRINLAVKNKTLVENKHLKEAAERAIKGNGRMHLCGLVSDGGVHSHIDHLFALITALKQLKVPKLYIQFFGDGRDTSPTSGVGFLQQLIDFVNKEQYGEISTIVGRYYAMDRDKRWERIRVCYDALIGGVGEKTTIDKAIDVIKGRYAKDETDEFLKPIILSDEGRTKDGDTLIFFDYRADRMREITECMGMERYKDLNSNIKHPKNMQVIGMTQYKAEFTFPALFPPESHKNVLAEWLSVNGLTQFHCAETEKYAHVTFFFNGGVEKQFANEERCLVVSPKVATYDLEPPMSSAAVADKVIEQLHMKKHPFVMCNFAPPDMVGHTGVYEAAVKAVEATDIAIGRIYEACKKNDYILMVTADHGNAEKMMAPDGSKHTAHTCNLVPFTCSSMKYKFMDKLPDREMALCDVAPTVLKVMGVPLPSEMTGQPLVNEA
Chain of P. pyralis FLuc (P08659 whole entry): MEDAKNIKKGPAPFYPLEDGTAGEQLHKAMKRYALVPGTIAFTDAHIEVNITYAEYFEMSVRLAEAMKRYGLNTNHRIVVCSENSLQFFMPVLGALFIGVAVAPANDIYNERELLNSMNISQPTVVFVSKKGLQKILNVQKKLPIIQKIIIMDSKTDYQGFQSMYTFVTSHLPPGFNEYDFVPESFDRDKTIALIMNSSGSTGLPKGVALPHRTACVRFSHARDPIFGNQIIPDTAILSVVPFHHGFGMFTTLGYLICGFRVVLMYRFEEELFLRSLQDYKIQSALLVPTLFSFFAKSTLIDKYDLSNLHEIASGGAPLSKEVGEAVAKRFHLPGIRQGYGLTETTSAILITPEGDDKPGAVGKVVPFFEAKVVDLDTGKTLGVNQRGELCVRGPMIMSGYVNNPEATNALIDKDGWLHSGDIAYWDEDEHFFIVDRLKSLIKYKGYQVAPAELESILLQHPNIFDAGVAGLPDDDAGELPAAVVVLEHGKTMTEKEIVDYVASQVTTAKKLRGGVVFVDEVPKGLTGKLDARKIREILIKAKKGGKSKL
T1 sequence (P08659 whole entry, looked up): as the sequence (P08659 whole entry) above

Turning to `CC(CNC(=O)C1CCN(C(=O)c2ncn3c2COC(c2ccccc2)C3)CC1)c1ccccc1` (stereo not shown) [compound 00449795], the IC50 turned out to be 0.00248 mM in test [1] and 0.00197 mM in test [2] (read-out: IC50 or SDR50 (mM) FLuc E). Besides, in test [2] (Clade S follow-up), the “Efficacy (%) FLuc E” value was -95.72%.
As for `Nc1ncnc2c1ncn2[C@@H]1O[C@H](COP(=O)(O)OP(=O)(O)OP(=O)(O)O)[C@@H](O)[C@H]1O` [ATP], the SDR assay data was 6.4 and 7.5 and 12.8 in test [3] (M -3.15); 7.0 and 9.1 in test [3] (M -3.75); 6.9 and 5.8 and 9.6 in test [3] (M -4.05); 5.3 and 6.4 and 8.6 in test [3] (M -6.76). Further, in test [3] (setting [5]), the “SDR assay statistics Ave RLU” value came to 2214.0 RLU. Also, in test [3] (setting [5]), the “SDR assay statistics S:B” value worked out at 1.1. In test [3] (E. coli Lig-C-HiBiT, maximum response), the max resp worked out at 7.8. Also, the SDR response in test [3] (M -2.85) was 4.8 and 10.7; in test [3] (M -3.15) it was 6.4 and 12.8; in test [3] (M -3.45), 4.5 and 9.6; in test [3] (M -3.75) it was 7.0 and 9.1; in test [3] (M -4.05), 6.9 and 5.8 and 9.6; in test [3] (M -4.35), 9.4 and 4.6 and 6.2. In addition, the SDR response in test [3] (M -4.65) is 10.2 and 2.5; in test [3] (M -4.95) it was 10.5 and 2.6; in test [3] (M -5.25), 4.4 and 2.6 and 13.4; in test [3] (M -5.55), 1.7 and 7.1; in test [3] (M -5.86) it was 5.9; in test [3] (M -6.16) it was 9.8 and 1.1 and 5.3. Also, the SDR response was 6.3 and 0.236 and 4.6 in test [3] (M -6.46); 5.3 and 6.4 in test [3] (M -6.76).
With `CC(C)C[C@H](NC(=O)[C@H](Cc1ccc(O)cc1)NC(=O)[C@@H]1CSCC(=O)N[C@H](Cc2ccc(O)cc2)C(=O)N[C@@H](CC(=O)O)C(=O)N[C@@H](Cc2ccc(O)cc2)C(=O)N2CCC[C@H]2C(=O)NCC(=O)N[C@@H](CC(=O)O)C(=O)N[C@@H](Cc2ccc(O)cc2)C(=O)N1)C(=O)N[C@@H](Cc1ccc(O)cc1)C(=O)NCC(=O)N[C@H](C(=O)N[C@@H](CS)C(=O)NCC(N)=O)[C@@H](C)O` [Ce-2], in test [4], the “SDR assay statistics Ave RLU” value is listed as 552.2 RLU, the “SDR assay statistics S:B” value came out at 1.8, the “SDR assay statistics S:N” value is 14.4 and the “SDR assay statistics Z’” value was 0.702.

These data come from PMC12064818, “A general assay platform to study protein pharmacology using ligand-dependent structural dynamics” (Nature Communications, 2025).
